# Tests used:
# [1] = average person, drinking water guidance; cited from earlier work
# [2] = twenty four hours following a single oral dose; cited from earlier work
# [3] = metabolite of chloral hydrate; cited from earlier work
# [4] = tested on: antibody of the invention (polyclonal IgG raised against Immunogen II, TCG-BTG); assay: Competitive ELISA for TCG: cross-reactivity and specificity of the antibody; format: binding, sheep; conditions: for IC50 = standard concentration which produces 50% B/B0: hapten A-HRP conjugate
# Protocol: TCG was coupled to bovine thyroglobulin (Immunogen II, Example 5). The resulting immunogen was administered to adult sheep on a monthly basis to provide target-specific polyclonal antisera. IgG was extracted from the antisera via caprylic acid/ammonium sulphate precipitation of immunoglobulin. Microtitre plates (Thermo Scientific, 468667) were coated with antibody (125 μl) in coating buffer (10 mM Tris pH 8.5) at 37° C. for 2 hours. Antibody was coated at 1.25 μg/ml. The plates were then washed. 50 μl of sample/standard (trichloroethyl glucuronide, Randox LK811; chloral hydrate, Sigma C8383-100 g; trichloroacetic acid, Fisher Scientific T/3000/50; ETG, Randox LK589) was added to the appropriate wells in triplicate, followed by 75 μl of hapten A-HRP conjugate at ¼K and incubated at 25° C. for 1 hour. The plates were then washed and 125 μl of TMB (Randox, 4380-15) was added to each well and left at room temperature for 20 mins in the dark. The reaction was stopped using 125 μl of 0.2M sulphuric acid. The absorbances were read at 450 nm with an ELISA microplate reader (BIO-TEK Instruments, Elx800) and the means calculated. Antibody specificity and sensitivity were then determined.
# Competitive ELISA results in the Table 1 below highlight the specificity of the antibody of the invention towards TCG.
Structure (SMILES),% CR = percentage cross-reactivity based on 100% specificity to TCG ([4]; competitive ELISA),IC50 = standard concentration which produces 50% B/B0 ([4]; competitive ELISA),% B/B0 ([4]; standard 31.25 ng/ml) [%],A450 (absorbance at 450 nm) ([4]; standard 31.25 ng/ml),% B/B0 ([4]; standard 62.5 ng/ml) [%],A450 (absorbance at 450 nm) ([4]; standard 62.5 ng/ml),% B/B0 ([4]; standard 125 ng/ml) [%],A450 (absorbance at 450 nm) ([4]; standard 125 ng/ml),% B/B0 ([4]; standard 250 ng/ml) [%],A450 (absorbance at 450 nm) ([4]; standard 250 ng/ml),% B/B0 ([4]; standard 500 ng/ml) [%],A450 (absorbance at 450 nm) ([4]; standard 500 ng/ml),% B/B0 ([4]; standard 1000 ng/ml) [%],A450 (absorbance at 450 nm) ([4]; standard 1000 ng/ml),% B/B0 ([4]; standard 2000 ng/ml) [%],A450 (absorbance at 450 nm) ([4]; standard 2000 ng/ml),other results
"OC(O)C(Cl)(Cl)Cl [Chloral Hydrate, 2,2,2-trichloroethanediol]",–,–,–,–,–,–,–,–,–,–,–,–,–,–,–,–,Tolerable Daily Intake (TDI) [1]: 0.3 mg/day; excreted in the urine as TCG [2]: ~28%; excreted in the urine as trichloroethanol [2]: approximately 0.7%
"O=C(O)C(Cl)(Cl)Cl [Trichloroacetic Acid, trichloroacetic acid]",<<0.69%,>>2000 ng/ml,91.2,1.372,92.5,1.391,92.4,1.389,87.2,1.312,85.4,1.284,81.8,1.230,72.7,1.094,half-life [3]: approximately 4 days
"O=C(O)[C@H]1O[C@@H](OCC(Cl)(Cl)Cl)[C@H](O)[C@@H](O)[C@@H]1O [TCG, trichloroethanol glucuronide]",100%,13.724 ng/mL,–,–,–,–,–,–,–,–,–,–,–,–,–,–,% B/B0 ([4]; standard 1.25 ng/ml): 86.6%; A450 (absorbance at 450 nm) ([4]; standard 1.25 ng/ml): 1.313; % B/B0 ([4]; standard 2.5 ng/ml): 81.0%; A450 (absorbance at 450 nm) ([4]; standard 2.5 ng/ml): 1.228; % B/B0 ([4]; standard 5 ng/ml): 70.0%; A450 (absorbance at 450 nm) ([4]; standard 5 ng/ml): 1.061; % B/B0 ([4]; standard 10 ng/ml): 57.5%; A450 (absorbance at 450 nm) ([4]; standard 10 ng/ml): 0.872; % B/B0 ([4]; standard 20 ng/ml): 42.3%; A450 (absorbance at 450 nm) ([4]; standard 20 ng/ml): 0.641; % B/B0 ([4]; standard 40 ng/ml): 30.7%; A450 (absorbance at 450 nm) ([4]; standard 40 ng/ml): 0.465; % B/B0 ([4]; standard 80 ng/ml): 24.6%; A450 (absorbance at 450 nm) ([4]; standard 80 ng/ml): 0.373
"CCO[C@@H]1O[C@H](C(=O)O)[C@@H](O)[C@H](O)[C@H]1O [EtG, ethyl glucuronide]",<<0.69%,>>2000 ng/ml,86.7,1.183,83.9,1.144,84.8,1.157,82.8,1.130,80.2,1.094,75.6,1.031,69.6,0.950,"cross-reactivity with the antibody of the invention (in words) ([4]; competitive ELISA, Table 1): does not cross-react"

# Source: patent US8530177B2, “Chloral hydrate detection” (Randox Laboratories Limited, priority 2010, dated 2013)
